Source: the NIST ThermoML archive (doi:10.1016/j.fluid.2013.06.041)

Tests used:
[1] = xn = mol fraction of the nth substance listed; settings: 101 kPa, Liquid, Small sample (50 mg) DSC
[2] = molar heat capacity at constant pressure; settings: 101.33 kPa, Liquid, Small sample (50 mg) DSC
[3] = 101.33 kPa, Liquid, Vibrating tube method

OCCO [1,2-ethanediol] + O
excess molar heat capacity [J/K/mol], [1]
Settings	283.15 K	293.15 K	298.15 K	303.15 K	313.15 K
x1 = 0.00991	0.43	0.3	0.26	0.26	0.37
x1 = 0.02619	0.87	0.79	0.76	0.75	0.74
x1 = 0.04637	1.03	1.25	1.33	1.39	1.5
x1 = 0.07516	1.32	1.72	1.85	1.96	2.17
x1 = 0.09514	–	–	1.99	2.2	2.5
x1 = 0.1016	1.26	–	–	–	–
x1 = 0.1245	1.16	1.91	2.17	2.38	2.76
x1 = 0.1491	0.94	1.76	2.08	2.35	2.82
x1 = 0.1731	0.76	1.68	2.01	2.29	–
x1 = 0.2203	–	–	–	–	2.62
x1 = 0.2903	–	0.61	1.14	1.6	2.42
x1 = 0.4076	–	0.05	0.54	0.98	1.82
x1 = 0.4641	–	–	0.35	0.78	1.58
x1 = 0.6066	–	–	0.02	0.035	0.96
x1 = 0.6959	–	–	–	0.15	0.63
x1 = 0.804	–	–	–	–	0.18

OCCO [1,2-ethanediol]
Settings	mass density, 283.15 K [kg/m3]	mass density, 293.15 K [kg/m3]	mass density, 303.15 K [kg/m3]	mass density, 313.15 K [kg/m3]	molar heat capacity at constant pressure, 283.15 K [J/K/mol]	molar heat capacity at constant pressure, 293.15 K [J/K/mol]	molar heat capacity at constant pressure, 298.15 K [J/K/mol]	molar heat capacity at constant pressure, 303.15 K [J/K/mol]	molar heat capacity at constant pressure, 313.15 K [J/K/mol]
[2]	–	–	–	–	145.38	148.53	150.22	151.96	155.49
[3]	1120.39	1113.34	1106.23	1099.07	–	–	–	–	–

OCCCCO [1,4-butanediol]
Settings	mass density, 283.15 K [kg/m3]	mass density, 293.15 K [kg/m3]	mass density, 298.15 K [kg/m3]	mass density, 303.15 K [kg/m3]	mass density, 313.15 K [kg/m3]	molar heat capacity at constant pressure, 283.15 K [J/K/mol]	molar heat capacity at constant pressure, 293.15 K [J/K/mol]	molar heat capacity at constant pressure, 298.15 K [J/K/mol]	molar heat capacity at constant pressure, 303.15 K [J/K/mol]	molar heat capacity at constant pressure, 313.15 K [J/K/mol]
[2]	–	–	–	–	–	195.51	200.85	203.73	206.71	212.96
[3]	1022.21	1016.11	1013.06	1009.99	1003.85	–	–	–	–	–

CCCCC(O)CO (stereo not given) [1,2-hexanediol]
Settings	mass density, 283.15 K [kg/m3]	mass density, 293.15 K [kg/m3]	mass density, 298.15 K [kg/m3]	mass density, 303.15 K [kg/m3]	mass density, 313.15 K [kg/m3]	molar heat capacity at constant pressure, 283.15 K [J/K/mol]	molar heat capacity at constant pressure, 293.15 K [J/K/mol]	molar heat capacity at constant pressure, 298.15 K [J/K/mol]	molar heat capacity at constant pressure, 303.15 K [J/K/mol]	molar heat capacity at constant pressure, 313.15 K [J/K/mol]
[2]	–	–	–	–	–	277.11	287.76	293.1	298.44	309.15
[3]	958.85	951.73	948.1	944.44	937.06	–	–	–	–	–
